Measured values taken from patent US20200261596A1, “Therapeutic Particles with Peptide Boronic Acid or Boronate Ester Compounds and Methods of Making and Using Same” (Pfizer Inc., priority 2016, published 2020).
In brackets after ≈: the same amount, converted by molar mass. Where two headings read alike, the source gives them in different places.

Experiments:
Bortezomib solubility = format: physicochemical; conditions: read-out: BTZ solubility
[1] = Pharmacologic kinetic profile in rats (plasma levels by LCMS); format: in vivo, Sprague-Dawley rats; conditions: single intravenous dose of 0.1 mg/kg, FIG. 13A
Experimental: Rats (male Sprague Dawley, approximately 300 g with jugular cannulae are given a single intravenous dose of 0.1 mg/kg free drug or passively targeted nanoparticles (PTNP) encapsulating drug at time t=0. At various times after dosing, blood samples are collected from the jugular cannulae into tubes containing lithium heparin, and plasma is prepared. Plasma levels are determined by extraction of the drug from plasma followed by LCMS analysis.

solubility (Bortezomib solubility; 0.5% sodium cholate, 2% BA, 4% EA in water (water phase), aqueous with cosolvent or surfactant or cyclodextrin, Water phase: 0.5% sodium cholate, 2% BA, 4% EA in water): 1300 µg/mL (≈ 3.38 mM)
solubility (Bortezomib solubility; benzyl alcohol:ethyl acetate 21:79 (w/w %) (oil phase), organic solvent or mixture, Oil phase: Benzyl alcohol:Ethyl acetate (BA:EA = 21:79, w/w %)): > 93000 µg/mL
solubility (Bortezomib solubility; water (quench phase), water, Quench phase: water): 1100 µg/mL (≈ 2.86 mM)
circulation time / plasma clearance [1]: rapidly cleared from the plasma
SMILES: CC(C)C[C@H](NC(=O)[C@H](Cc1ccccc1)NC(=O)c1cnccn1)B(O)O [Bortezomib, bortezomib]
